Results as given in US6596715B1, “Protease inhibitors” (SmithKline Beecham Corporation, priority 1999, dated 2003).

Assay: Chiral / configurational stability at the carbon alpha to the ketone
Type: physicochemical

configurational stability at the carbon center alpha to the ketone (compared to the corresponding 5 and 6 membered ring compounds): configurationally more stable
chiral stability (compared to the protonated isomer): superior chiral stability
Compound: [2H]C1(NC(=O)[C@H](CC(C)C)NC(=O)c2ccc3ccccc3n2)CCCN(S(=O)(=O)c2cccc[n+]2[O-])C([2H])([2H])C1=O (stereo partly drawn) [Formula (I), quinoline-2-carboxylic acid {(S)-3-methyl-1-[(2,2,4-trideuterio)-3-oxo-1-(1-oxy-pyridine-2-sulfonyl)-azepan-4-ylcarbamoyl]-butyl}amide]
